# Experimental data reported in US9771353B2, “Kinase inhibitors based upon N-alkyl pyrazoles” (RESPIVERT LIMITED, priority 2013, dated 2017).
# pIC50: −log10 of the molar value. Like-named read-outs stand apart in the source and are kept apart here.
# What was measured:
# d-U937 cells [1] = assay: LPS-induced TNFα/IL-8 release in d-U937 cells, assay (a); format: cell-based; conditions: Homo sapiens, LPS-stimulated dU937 cells
# Experimental: U937 cells, a human monocytic cell line, are differentiated to macrophage-type cells by incubation with phorbol myristate acetate (PMA; 100 ng/mL) for 48 to 72 hr. Cells are pre-incubated with final concentrations of test compound for 2 hr and are then stimulated with 0.1 μg/mL of LPS (from E. Coli: O111:B4, Sigma) for 4 hr. The supernatant is collected for determination of TNFα and IL-8 concentrations by sandwich ELISA (Duo-set, R&D systems). The inhibition of TNFα production is calculated as a percentage of that achieved by 10 μg/mL of BIRB796 at each concentration of test compound by comparison against vehicle control. The relative 50% effective concentration (REC50) is determined from the resultant concentration-response curve. The inhibition of IL-8 production is calculated at each concentration of test compound by comparison with vehicle control.
# Syk = Syk (Homo sapiens (Human), UniProt P43405); assay: Syk enzyme inhibition (FRET, Z-LYTE); format: biochemical
# Experimental: The enzyme inhibitory activities of compounds disclosed herein are determined by FRET using synthetic peptides labelled with both donor and acceptor fluorophores (Z-LYTE, Invitrogen Ltd., Paisley, UK).
# The inhibitory activities of compounds of the invention against c-Src and Syk enzymes (Invitrogen), are evaluated in a similar fashion to that described hereinabove. The relevant enzyme (3000 ng/mL or 2000 ng/mL respectively, 2.5 μL) is incubated with the test compound (either 4 μg/mL, 0.4 μg/mL, 0.04 μg/mL, or 0.004 μg/mL, 2.5 μL each) for 2 hr at RT. The FRET peptides (8 μM, 2.5 μL), and appropriate ATP solutions (2.5 μL, 800 μM for c-Src, and 60 μM ATP for Syk) are then added to the enzymes/compound mixtures and incubated for 1 hr. Development reagent (protease, 5 μL) is added for 1 hr prior to detection in a fluorescence microplate reader (Varioskan® Flash, ThermoFisher Scientific).
# In all cases, the site-specific protease cleaves non-phosphorylated peptide only and eliminates the FRET signal. Phosphorylation levels of each reaction are calculated using the ratio of coumarin emission (donor) over fluorescein emission (acceptor), for which high ratios indicate high phosphorylation and low ratios indicate low phosphorylation levels.
# PBMCs [2] = assay: IL-2 and IFN gamma release in CD3/CD28 stimulated PBMC cells, assay (c); format: cell-based; conditions: Homo sapiens
# Experimental: PBMCs from healthy subjects are separated from whole blood using a density gradient (Lymphoprep, Axis-Shield Healthcare). Cells are added to a 96 well plate pre-coated with a mixture of CD3/CD28 monoclonal antibodies (0.3 μg/mL eBioscience and 3 μg/mL BD Pharmingen respectively). Compound at the desired concentration is then added to the wells and the plate left for 3 days under normal tissue culture conditions. Supernatants are harvested and IL-2 and IFN gamma release determined by Sandwich ELISA (Duo-set, R&D System). The IC50 is determined from the dose response curve.
# HT29 cells = assay: IL-1β-induced IL-8 release in HT29 cells, assay (d); format: cell-based; conditions: Homo sapiens, HT-29, IL-1β-stimulated HT29 cells, read-out: IC50 Values for Inhibition of Cytokine Release, HT29 cells IL-8
# Experimental: HT29 cells, a human colon adenocarcinoma cell line, are plated in a 96 well plate (24 hrs) and pre-treated with compounds at the desired concentration for 2 hours before addition of 5 ng/mL of IL-1β (Abcam) for 24 hours. Supernatants are harvested for IL-8 quantification by Sandwich ELISA (Duo-set, R&D System). The IC50 is determined from the dose response curve.
# PBMCs [3] = assay: LPS-induced TNFα/IL-8 release in PBMC cells, assay (b); format: cell-based; conditions: Homo sapiens, LPS-stimulated PBMCs, read-out: IC50 Values for Inhibition of Cytokine Release, PBMCs IL-8
# Experimental: Peripheral blood mononuclear cells (PBMCs) from healthy subjects are separated from whole blood using a density gradient (Lymphoprep, Axis-Shield Healthcare). The PBMCs are seeded in 96 well plates and treated with compounds at the desired concentration for 2 hours before addition of 1 ng/mL LPS (Escherichia Coli 0111:B4 from Sigma Aldrich) for 24 hours under normal tissue culture conditions (37° C., 5% CO2). The supernatant is harvested for determination of IL-8 and TNFα concentrations by sandwich ELISA (Duo-set, R&D systems) and read on the fluorescence microplate reader (Varioskan® Flash, ThermoFisher Scientific).
# d-U937 cells [4] = assay: Accumulation of β catenin in d-U937 cells, assay (m); format: cell-based, human
# Experimental: U937 cells, a human monocytic cell line, are differentiated into macrophage-type cells by incubation with PMA; (100 ng/mL) for between 48 to 72 hr. The cells are then incubated with either final concentrations of test compound or vehicle for 18 hr. The induction of β-catenin by the test compounds is stopped by replacing the media with 4% formaldehyde solution. Endogenous peroxide activity is neutralised by incubating with quenching buffer (100 μL, 0.1% sodium azide, 1% H2O2 in PBS with 0.05% Tween-20) for 20 min. The cells are washed with washing buffer (200 μL; PBS containing 0.05% Tween-20) and incubated with blocking solution (200 μL; 5% milk in PBS) for 1 hr, re-washed with washing buffer (200 μL) and then incubated overnight with anti-β-catenin antibody solution (50 μL) in 1% BSA/PBS (BD, Oxford, UK).
# After washing with washing buffer (3×200 μL; PBS containing 0.05% Tween-20), cells are incubated with an HRP-conjugated secondary antibody solution (100 μL) in 1% BSA/PBS (Dako, Cambridge, UK) and the resultant signal is determined colourimetrically (OD: 450 nm with a reference wavelength of 655 nm) using TMB substrate (50 μL; R&D Systems, Abingdon, UK). This reaction is stopped by addition of 1N H2SO4 solution (50 μL). Cells are then washed with washing buffer and 2% crystal violet solution (50 μL) is applied for 30 min. After washing with washing buffer (3×200 μL), 1% SDS (100 μL) is added to each well and the plates are shaken lightly for 1 hr prior to measuring the absorbance at 595 nm (Varioskan® Flash, Thermo-Fisher Scientific).
# The measured OD450-655 readings are corrected for cell number by dividing the OD450-655 by the OD595 readings. The percentage induction for each well is calculated relative to vehicle, and the ratio of induction normalised in comparison with the induction produced by a standard control comprising of N-(4-(4-(3-(3-tert-butyl-1-p-tolyl-1H-pyrazol-5-yl)ureido)naphthalen-1-yloxy)pyridin-2-yl)-2-methoxyacetamide (1 μg/mL) which is defined as 100%.
# [5] = IL-8, read-out: IC50 Values for Inhibition of Cytokine Release, dU937 cells IL-8
# [6] = TNFα (method describes REC50 relative to BIRB796), read-out: IC50 Values for Inhibition of Cytokine Release, dU937 cells TNFα
# [7] = IL-2, read-out: IC50 Values for Inhibition of Cytokine Release, PBMCs IL-2
# [8] = 1 μg/mL test compound, normalised to reference N-(4-(4-(3-(3-tert-butyl-1-p-tolyl-1H-pyrazol-5-yl)ureido)naphthalen-1-yloxy)pyridin-2-yl)-2-methoxyacetamide
# [9] = 5 μg/mL test compound, normalised to the same reference compound
pIC50 (d-U937 cells [1]; [5]),pIC50 (d-U937 cells [1]; [6]),pIC50 (Syk),pIC50 (HT29 cells),SMILES,pIC50 (PBMCs [2]; [7]),pIC50 (PBMCs [3]),% β-catenin induction (d-U937 cells [4]; [8]),% β-catenin induction (d-U937 cells [4]; [9]),"pIC50 (PBMCs [2]; IFNγ, read-out: IC50 Values for Inhibition of Cytokine Release, PBMCs IFNγ)","% β-catenin induction (d-U937 cells [4]; 10 μg/mL test compound, normalised to the same reference compound)"
8.17,8.62,6.83,7.48,"C#Cc1cc(Nc2nccc(Oc3ccc(NC(=O)Nc4cc(C(C)(C)C)nn4C)c4ccccc34)n2)cc(C(=O)NCCN2CCOCC2)c1 [Example 1, 3-((4-((4-(3-(3-(tert-Butyl)-1-methyl-1H-pyrazol-5-yl)ureido)naphthalen-1-yl)oxy)pyrimidin-2-yl)amino)-5-ethynyl-N-(2-morpholinoethyl)benzamide]",7.76,8.80,−1.5%,10.5%,–,–
9.00,8.70,6.27,7.78,"COCCOCCOCCOc1cc(Nc2nccc(Oc3ccc(NC(=O)Nc4cc(C(C)(C)C)nn4C)c4ccccc34)n2)cc(OC)c1 [Example 2, 1-(3-(tert-Butyl)-1-methyl-1H-pyrazol-5-yl)-3-(4-((2-((3-methoxy-5-(2-(2-(2-methoxy-ethoxy)ethoxy)ethoxy)phenyl)amino)pyrimidin-4-yl)oxy)naphthalen-1-yl)urea]",7.95,8.44,−2%,6.5%,8.21,4.5%
